The source of these data is patent US12630525B2, “Triazinylmethylcycloalkylcarboxylic acid derivative, and pharmaceutical composition and use thereof” (SHANGHAI HAIYAN PHARMACEUTICAL TECHNOLOGY CO., LTD., priority 2021, dated 2026).

In one data set the target is T1, hP2X2/3 (Homo sapiens, UniProt P56373+Q9UBL9).
T1 construct: host or cells: 1321N1
T1 sequence (P56373 1-397): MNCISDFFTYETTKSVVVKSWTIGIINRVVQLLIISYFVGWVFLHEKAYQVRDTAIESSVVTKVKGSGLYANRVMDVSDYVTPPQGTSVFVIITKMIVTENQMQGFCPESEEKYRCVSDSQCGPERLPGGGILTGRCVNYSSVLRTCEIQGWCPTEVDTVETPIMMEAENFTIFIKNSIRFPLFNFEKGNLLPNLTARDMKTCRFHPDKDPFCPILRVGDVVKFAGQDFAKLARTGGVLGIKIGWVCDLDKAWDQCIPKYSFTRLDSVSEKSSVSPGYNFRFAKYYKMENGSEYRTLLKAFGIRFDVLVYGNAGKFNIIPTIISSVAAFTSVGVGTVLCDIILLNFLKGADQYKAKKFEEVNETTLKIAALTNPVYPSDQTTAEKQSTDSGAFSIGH
T1 sequence (Q9UBL9 1-471): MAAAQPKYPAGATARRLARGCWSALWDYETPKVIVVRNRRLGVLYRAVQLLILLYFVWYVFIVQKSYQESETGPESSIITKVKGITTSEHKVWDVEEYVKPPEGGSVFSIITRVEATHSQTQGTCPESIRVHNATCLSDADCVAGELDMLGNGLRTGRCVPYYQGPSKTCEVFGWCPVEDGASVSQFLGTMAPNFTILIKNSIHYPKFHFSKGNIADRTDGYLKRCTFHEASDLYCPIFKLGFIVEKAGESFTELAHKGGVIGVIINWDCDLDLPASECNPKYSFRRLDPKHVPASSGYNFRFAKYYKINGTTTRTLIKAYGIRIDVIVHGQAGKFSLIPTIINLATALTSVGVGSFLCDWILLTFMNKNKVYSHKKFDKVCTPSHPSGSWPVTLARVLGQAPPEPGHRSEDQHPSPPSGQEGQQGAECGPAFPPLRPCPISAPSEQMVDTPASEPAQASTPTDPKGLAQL
As to the kind of experiment: FLIPR assay, antagonistic activity against hP2X2/3 receptor (selectivity versus P2X3). The data set is classed as cell-based. Conditions: Multiple of P2X2/3 inhibitory activity and P2X3 inhibitory activity. The procedure:
(§1) Test Example 1: Screening Compounds for Antagonistic Activity Against hP2X3/hP2X2/3 Receptors by FLIPR Assay
(§2) Cell preparation: Cells 1321N1/hP2X3 and cells 1321N1/hP2X2/3 (supplier: Chempartner) were […] with Versene digestive solution. After centrifugation, the cells were suspended using plate medium (DMEM+[…]) and counted. The cells were adjusted to 3×10^5 cells/mL. Each of the 384-well test plates was covered with 50 μL cells and cultured in a […] incubator at 37° C. for 16 hours to 24 hours.
(§3) Compound preparation: 1. Test sample: test compound at a concentration 180 times the required concentration (54 mM DMSO stock solution) was prepared using DMSO in a 384-well polypropylene microporous plate conforming to Echo standard, 500 nL of which was added to each well of a 384-well compound plate. Then 30 μL of test buffer (1*HIBSS+2 mM CaCl2+20 mM HEPES containing 1.26 mM Ca^2+) was added to each well. The 384-well compound plate was shook for 20 min to 40 min to mix well.
(§4) 2. Agonist: agonist ([…]) at a concentration 3 times the required concentration (the final concentration of 3000 nM is required for both hP2X3 and hP2X2/3 cells) was prepared with the test buffer. 45 μL of agonist was added to each well of the 384-well compound plate.
(§5) Dye incubation: The cell plate was taken out. The supernatant was removed. 30 uL of Dye (FLTPR® Calcium 4 Assay Kit, test buffer diluted) was added to each well. The cells were incubated for 1 hour.
(§6) FLTPR detection: 15 μL of compound was added to each well of the cell plate (FLTPR instrument sampling). After 15 minutes, 22.5 μL of agonist was added to each well. Fluorescence signals (excitation wavelength of 470 nm to 495 nm, emission wavelength of 515 nm to 575 nm) were detected.
(§7) Data processing: the difference between the peak value and the valley value of the signal was taken as the basic data. The highest concentration of positive drug was taken as 100% inhibition rate, and DMSO data was taken as 0% inhibition rate. The inhibition curves of compounds were fitted by log (inhibitor) vs. response—Variable slope on Graphpad prism 6 and the IC50 value was calculated.
(§8) Experimental homogeneity standard: each plate was subjected to ≥12 max values (DMSO action results) and ≥12 min values (highest concentration positive drug action results), and the Z value was calculated. If Z≥0.5, it is considered that the parallel wells are homogenous and the data is reliable. The calculation formula for Z value is as follows: Z=1−3*(SDmax+SDmin)/([…]).

The next data set deals with T2, hP2X3 (Homo sapiens, UniProt P56373).
T2 construct: host or cells: 1321N1
T2 sequence (P56373 1-397): T1 sequence (P56373 1-397)
As to the kind of experiment: FLIPR assay, antagonistic activity against hP2X3 receptor. The format is cell-based. Conditions: 1321N1/hP2X3 cells, FLIPR Calcium 4, agonist 3000 nM; read-out: P2X3 (IC50/nM). The procedure:
as §1, §2, §3, §4, §5, §6, §7, §8

Data set [1] is described as follows: Exposure at the effective dose in the rat pain model (basis for safety windows). As to conditions: in vivo. From the text:
Calculation Basis for Safety Windows:

Data set [2] in a line: 14-day toxicity test with toxicokinetics in SD rats. The format is in vivo. As to conditions: for AUC / Cmax: SD, rat, blood, 100 mg/kg. The procedure:
Test Example 3: Toxicity Test
There were 16 male and 16 female SD rats with SPF grade. Male SD rats weighed about 240 g and were 6 to 9 weeks old. Female SD rats weighed about 200 g and were 6 to 9 weeks old. All the experimental animals were purchased from Zhejiang Weitonglihua Experimental Animal Technology Co., LTD. After purchase, food and water were supplied in the way of free feeding. The feeding temperature was 20° C. to 26° C. The humidity was 40% to 70%. The number of air changes per hour was ≥15 times, and 100% fresh air was used. Automatic lighting and alternating light and dark every 12 hours were used. Male and female are kept in separate cages, with no more than 5 rats per cage.
Animals in each group were randomly divided according to gender and body weight, and were given the medicament once a day for 14 days according to the dose design in Table 7. Toxicokinetic blood sampling was performed in each dose group 30 min, 1 hr, 4 hr, 7 hr, 10 hr and 24 hr before and after the first and last administration, respectively, to investigate the toxicokinetic process in SD rats of each group.

For data set [3], the system named is mechanical pain hypersensitivity in the rat CFA inflammatory pain model. As to the kind of experiment: Analgesic effect in rat CFA inflammatory pain model (von Frey paw withdrawal threshold). The format is in vivo, SD rats. The procedure: Test Example 2: Evaluation of Analgesic Effect of Rat CFA Inflammatory Pain Model
Experimental animals: 50 male SD rats with a weight of 230 g to 260 g were used. All the experimental animals were purchased from Beijing Weitonglihua Experimental Animal Technology Co., LTD. After purchase, food and water were supplied in the way of free feeding. The feeding temperature was 20° C. to 25° C. The humidity was 40% to 70%. The animals were kept in separate cages and labeled using the tail labeling method.
An emulsion was obtained by mixing full Freund's adjuvant with saline in equal amount. A certain amount of the emulsion was injected subcutaneously into the rats. The animal was placed in a specially designed multi-unit metal mesh cage for pain detection and allowed to acclimate for 15 minutes. After the animal's grooming and investigation activities were completed and acclimated to the detection environment, a series of calibrated von Frey filaments (0.4, 0.6, 1.0, 1.4, 2, 4, 6, 8, 10, 15) were continuously applied to the back paw until a withdrawal reflex reaction occurred. The tester conducted blind test on the experiment, and the experimental results were expressed as “mean±standard deviation”. The data of each group are analyzed by GraphPad Prism 5 t test, with statistical difference at P<0.05.

The mark [4] stands for this setting: female, female SD rats, 100 mg/kg once a day for 14 days, last administration, read-out: AUC0t Last administration.
Setting [5] is: female, female SD rats, 100 mg/kg once a day for 14 days, last administration, read-out: Cmax Last administration.
[6] abbreviates: female, female SD rats, 100 mg/kg once a day, first administration, read-out: AUC0t First administration.
The mark [7] stands for this setting: female, female SD rats, 100 mg/kg once a day, first administration, read-out: Cmax First administration.
Where [8] appears, read: male, male SD rats, 100 mg/kg once a day for 14 days, last administration, read-out: AUC0t Last administration.
Where [9] appears, read: male, male SD rats, 100 mg/kg once a day for 14 days, last administration, read-out: Cmax Last administration.
Setting [10] is: male, male SD rats, 100 mg/kg once a day, first administration, read-out: AUC0t First administration.
Where [11] appears, read: male, male SD rats, 100 mg/kg once a day, first administration, read-out: Cmax First administration.

Each structure is given as a SMILES string.

Compound `O=C(O)[C@@H]1C[C@H]1Cn1c(=O)[nH]/c(=N\c2ccc(Oc3ncccc3F)cc2)n(Cc2ccc(Cl)cc2)c1=O` (racemic) [Compound H8, (±) trans-2-((3-(4-chlorobenzyl)-4-((4-((3-fluoropyridin-2-yl)oxy)phenyl)imino)-2,6-dioxo-1,3,5-triazin-1-yl)methyl)cyclopropane-1-carboxylic acid] returned a Selectivity multiple on hP2X2/3 of 238. In addition, on hP2X3, the IC50 was 148 nM.
`O=C(O)[C@@H]1C[C@H]1Cn1c(=O)[nH]/c(=N\c2ccc(Oc3cccc(F)n3)cc2)n(Cc2ccc(Cl)cc2)c1=O` (racemic) [Compound H7, (±) trans-2-((3-(4-chlorobenzyl)-4-((4-((6-fluoropyridin-2-yl)oxy)phenyl)imino)-2,6-dioxo-1,3,5-triazin-1-yl)methyl)cyclopropan-1-carboxylic acid]: at hP2X2/3, the Selectivity multiple was 114. Besides, at hP2X3, the IC50 is 73 nM.
`O=C(O)[C@@H]1C[C@H]1Cn1c(=O)[nH]/c(=N\c2ccc(Oc3ccc(F)cn3)cc2)n(Cc2ccc(Cl)cc2)c1=O` (racemic) [Compound H5, (±) trans-2-((3-(4-chlorobenzyl)-4-((4-((5-fluoropyridin-2-yl)oxy)phenyl)imino)-2,6-dioxo-1,3,5-triazin-1-yl)methyl)cyclopropan-1-carboxylic acid] gave a Selectivity multiple on hP2X2/3 of 251.
On hP2X2/3, `O=C(O)[C@H]1C[C@@H]1Cn1c(=O)[nH]/c(=N\c2ccc(Oc3ccc(F)cn3)cc2)n(Cc2ccc(Cl)cc2)c1=O` [Compound H5-P1, (1S,2S)-2-((3-(4-chlorobenzyl)-4-((4-((5-fluoropyridin-2-yl)oxy)phenyl)imino)-2,6-dioxo-1,3,5-triazin-1-yl)methyl)cyclopropan-1-carboxylic acid] showed a Selectivity multiple of 590. The AUC in data set [1] (30 mg/kg) was roughly 249 µg·h/mL; in data set [2] (setting [4]) it was 1740 µg·h/mL; in data set [2] (setting [6]), 1420 µg·h/mL; in data set [2] (setting [8]), 2390 µg·h/mL; in data set [2] (setting [10]), 1460 µg·h/mL. Moreover, the Cmax was roughly 18.4 µg/mL in data set [1] (30 mg/kg); 135 µg/mL in data set [2] (setting [5]); 112 µg/mL in data set [2] (setting [7]); 162 µg/mL in data set [2] (setting [9]); 101 µg/mL in data set [2] (setting [11]). In addition, the “safety window (in words)” value in data set [2] (from the data in Table 8) is reported as “high”. Moreover, the IC50 on hP2X3 is 23 nM. In addition, the “analgesic effect 4 hours after administration” value in data set [3] (60 mg/kg oral, 4 hours after administration) is on record as “good analgesic effect”. For the same compound, the “mechanical pain hypersensitivity (paw withdrawal threshold)” value in data set [3] (rat CFA model, oral, 30 and 60 mg/kg, FIG. 2 and FIG. 3) is reported as “significantly inhibits”. For the same compound, the “effective dose in the rat pain model” value in data set [3] (oral) is on record as 30 mg/kg.
In the case of `O=C(O)[C@@H]1C[C@H]1Cn1c(=O)[nH]/c(=N\c2ccc(Oc3ccccn3)cc2)n(Cc2ccc(Cl)cc2)c1=O` (racemic) [Compound H2, (±) trans-2-((3-(4-chlorobenzyl)-2,6-dioxo-4-(4-(pyridin-2-yloxy)phenylimino)-1,3,5-triazin-1-yl)methyl)cyclopropanecarboxylic acid], at hP2X2/3, the Selectivity multiple was found to be 151.
For `C[C@@H](Cn1c(=O)nc(Nc2ccc(Oc3ccccn3)cc2)n(Cc2ccc(Cl)cc2)c1=O)C(=O)O` [Compound D1, reference compound], the AUC in data set [1] (60 mg/kg) was roughly 1570 µg·h/mL; in data set [2] (setting [4]), 2150 µg·h/mL; in data set [2] (setting [6]), 2420 µg·h/mL; in data set [2] (setting [8]), 2540 µg·h/mL; in data set [2] (setting [10]), 2770 µg·h/mL. For the same compound, the Cmax in data set [1] (60 mg/kg) is roughly 141 µg/mL; in data set [2] (setting [5]) it was 156 µg/mL; in data set [2] (setting [7]), 185 µg/mL; in data set [2] (setting [9]), 188 µg/mL; in data set [2] (setting [11]), 200 µg/mL. Besides, the “effective dose in the rat pain model” value in data set [3] (oral) came to 60 mg/kg.
Regarding `O=C(O)[C@@H]1C[C@H]1Cn1c(=O)[nH]c(=Nc2ccc(Oc3ccc(F)cn3)cc2)n(Cc2ccc(Cl)cc2)c1=O` [Compound H5-P2, (1R,2R)-2-((3-(4-chlorobenzyl)-4-((4-((5-fluoropyridin-2-yl)oxy)phenyl)imino)-2,6-dioxo-1,3,5-triazin-1-yl)methyl)cyclopropan-1-carboxylic acid], the Selectivity multiple on hP2X2/3 was 176. Moreover, the IC50 on hP2X3 came out at 106 nM.
Turning to `O=C(O)[C@@H]1C[C@@H]1Cn1c(=O)[nH]/c(=N\c2ccc(Oc3ccccn3)cc2)n(Cc2ccc(Cl)cc2)c1=O` (racemic) [Compound H1, (±) cis-2-((3-(4-chlorobenzyl)-2,6-dioxo-4-(4-(pyridin-2-yloxy)phenylimino)-1,3,5-triazin-1-yl)methyl)cyclopropanecarboxylic acid], the Selectivity multiple on hP2X2/3 came out at 27.
